In brackets after ≈: the same amount, converted by molar mass. Activity calls are given as the source filed them. The calls are words filed in the database; no cut-off is given here.
Tests used:
Format in all cases: functional
Listeria monocytogenes [1] = assay: Antibacterial activity against Listeria monocytogenes by CLSI M100-S18 method
[2] = Antibacterial activity against Lancefield Streptococcus sp. 'group C' by CLSI M100-S18 method
Streptococcus sp. = assay: Antibacterial activity against Lancefield Streptococcus sp. group F by CLSI M100-S18 method
[3] = Antibacterial activity against Lancefield Streptococcus sp. 'group G' by CLSI M100-S18 method
Streptococcus pneumoniae [4] = assay: Antibacterial activity against levofloxacin-susceptible Streptococcus pneumoniae by CLSI M100-S18 method
Streptococcus pneumoniae [5] = assay: Antibacterial activity against non-levofloxacin susceptible Streptococcus pneumoniae by CLSI M100-S18 method
Streptococcus pyogenes = assay: Antibacterial activity against Streptococcus pyogenes by CLSI M100-S18 method
Streptococcus anginosus [6] = assay: Antibacterial activity against Streptococcus anginosus by CLSI M100-S18 method
Streptococcus equinus [7] = assay: Antibacterial activity against Streptococcus bovis by CLSI M100-S18 method
[8] = test system: Streptococcus constellatus; assay: Antibacterial activity against Streptococcus constellatus by CLSI M100-S18 method
[9] = test system: Streptococcus intermedius; assay: Antibacterial activity against Streptococcus intermedius by CLSI M100-S18 method
Streptococcus mitis [10] = assay: Antibacterial activity against Streptococcus mitis by CLSI M100-S18 method
Streptococcus oralis [11] = assay: Antibacterial activity against Streptococcus oralis by CLSI M100-S18 method
Streptococcus salivarius [12] = assay: Antibacterial activity against Streptococcus salivarius by CLSI M100-S18 method
Streptococcus sanguinis [13] = assay: Antibacterial activity against Streptococcus sanguinis by CLSI M100-S18 method
Haemophilus influenzae [14] = assay: Antibacterial activity against ciprofloxacin-susceptible Haemophilus influenzae by CLSI M7-A7 method
Haemophilus influenzae [15] = assay: Antibacterial activity against non-ciprofloxacin-susceptible Haemophilus influenzae by CLSI M7-A7 method
Neisseria meningitidis [16] = assay: Antibacterial activity against Neisseria meningitidis by CLSI M7-A7 method
Listeria monocytogenes [17] = assay: Antibacterial activity against Listeria monocytogenes assessed as percent susceptible isolates by CLSI M100-S18 method
Streptococcus pneumoniae [18] = assay: Antibacterial activity against levofloxacin susceptible Streptococcus pneumoniae assessed as percent susceptible isolates by CLSI M100-S18 method
Streptococcus pneumoniae [19] = assay: Antibacterial activity against non-levofloxacin susceptible Streptococcus pneumoniae assessed as percent susceptible isolates by CLSI M100-S18 method
Streptococcus anginosus [20] = assay: Antibacterial activity against Streptococcus anginosus assessed as percent susceptible isolates by CLSI M100-S18 method
Streptococcus equinus [21] = assay: Antibacterial activity against Streptococcus bovis assessed as percent susceptible isolates by CLSI M100-S18 method
[22] = test system: Streptococcus constellatus; assay: Antibacterial activity against Streptococcus constellatus assessed as percent susceptible isolates by CLSI M100-S18 method
[23] = test system: Streptococcus intermedius; assay: Antibacterial activity against Streptococcus intermedius assessed as percent susceptible isolates by CLSI M100-S18 method
Streptococcus mitis [24] = assay: Antibacterial activity against Streptococcus mitis assessed as percent susceptible isolates by CLSI M100-S18 method
Streptococcus oralis [25] = assay: Antibacterial activity against Streptococcus oralis assessed as percent susceptible isolates by CLSI M100-S18 method
Streptococcus salivarius [26] = assay: Antibacterial activity against Streptococcus salivarius assessed as percent susceptible isolates by CLSI M100-S18 method
Streptococcus sanguinis [27] = assay: Antibacterial activity against Streptococcus sanguinis assessed as percent susceptible isolates by CLSI M100-S18 method
Haemophilus influenzae [28] = assay: Antibacterial activity against ciprofloxacin-susceptible Haemophilus influenzae assessed as percent susceptible isolates by CLSI M7-A7 method
Haemophilus influenzae [29] = assay: Antibacterial activity against non-ciprofloxacin-susceptible Haemophilus influenzae assessed as percent susceptible isolates by CLSI M7-A7 method
Neisseria meningitidis [30] = assay: Antibacterial activity against Neisseria meningitidis assessed as percent susceptible isolates by CLSI M7-A7 method
Enterococcus faecalis [31] = assay: Antibacterial activity against vancomycin- resistant Enterococcus faecalis by CLSI M100-S18 method
Enterococcus faecium [32] = assay: Antibacterial activity against vancomycin- resistant Enterococcus faecium by CLSI M100-S18 method
Enterococcus faecalis [33] = assay: Antibacterial activity against vancomycin- resistant Enterococcus faecalis assessed as percent susceptible isolates by CLSI M100-S18 method
Enterococcus faecium [34] = assay: Antibacterial activity against vancomycin- resistant Enterococcus faecium assessed as percent susceptible isolates by CLSI M100-S18 method

Compound: CC1(C)S[C@@H]2[C@H](NC(=O)Cc3ccccc3)C(=O)N2[C@H]1C(=O)O [PENICILLIN G]
- MIC50 (Listeria monocytogenes [1]): 0.25 µg/mL (≈ 0.748 µM)
- MIC90 (Listeria monocytogenes [1]): 0.25 µg/mL (≈ 0.748 µM)
- MIC50 [2]: 8 µg/mL (≈ 23.9 µM)
- MIC90 [2]: 16 µg/mL (≈ 47.8 µM)
- MIC50 (Streptococcus sp.): 8 µg/mL (≈ 23.9 µM)
- MIC90 (Streptococcus sp.): 16 µg/mL (≈ 47.8 µM)
- MIC50 [3]: 8 µg/mL (≈ 23.9 µM)
- MIC90 [3]: 16 µg/mL (≈ 47.8 µM)
- MIC (Streptococcus pneumoniae [4]): ≤ 0.06 µg/mL
- MIC50 (Streptococcus pneumoniae [4]): ≤ 0.06 µg/mL
- MIC90 (Streptococcus pneumoniae [4]): 0.5 µg/mL (≈ 1.5 µM)
- MIC50 (Streptococcus pneumoniae [5]): 0.12 µg/mL (≈ 0.359 µM)
- MIC90 (Streptococcus pneumoniae [5]): 2 µg/mL (≈ 5.98 µM)
- MIC (Streptococcus pyogenes): ≤ 0.015 µg/mL
- MIC50 (Streptococcus pyogenes): ≤ 0.015 µg/mL
- MIC90 (Streptococcus pyogenes): ≤ 0.015 µg/mL
- MIC50 (Streptococcus anginosus [6]): 0.06 µg/mL (≈ 0.179 µM)
- MIC90 (Streptococcus anginosus [6]): 1 µg/mL (≈ 2.99 µM)
- MIC50 (Streptococcus equinus [7]): 16 µg/mL (≈ 47.8 µM)
- MIC90 (Streptococcus equinus [7]): 32 µg/mL (≈ 95.7 µM)
- MIC50 [8]: 16 µg/mL (≈ 47.8 µM)
- MIC90 [8]: 32 µg/mL (≈ 95.7 µM)
- MIC50 [9]: 16 µg/mL (≈ 47.8 µM)
- MIC90 [9]: 32 µg/mL (≈ 95.7 µM)
- MIC50 (Streptococcus mitis [10]): 16 µg/mL (≈ 47.8 µM)
- MIC90 (Streptococcus mitis [10]): 32 µg/mL (≈ 95.7 µM)
- MIC50 (Streptococcus oralis [11]): 16 µg/mL (≈ 47.8 µM)
- MIC90 (Streptococcus oralis [11]): 32 µg/mL (≈ 95.7 µM)
- MIC50 (Streptococcus salivarius [12]): 16 µg/mL (≈ 47.8 µM)
- MIC90 (Streptococcus salivarius [12]): 32 µg/mL (≈ 95.7 µM)
- MIC50 (Streptococcus sanguinis [13]): 16 µg/mL (≈ 47.8 µM)
- MIC90 (Streptococcus sanguinis [13]): 32 µg/mL (≈ 95.7 µM)
- MIC50 (Haemophilus influenzae [14]): 0.5 µg/mL (≈ 1.5 µM)
- MIC90 (Haemophilus influenzae [14]): > 4 µg/mL
- MIC50 (Haemophilus influenzae [15]): 1 µg/mL (≈ 2.99 µM)
- MIC90 (Haemophilus influenzae [15]): 2 µg/mL (≈ 5.98 µM)
- MIC (Neisseria meningitidis [16]): ≤ 0.06 µg/mL
- MIC50 (Neisseria meningitidis [16]): ≤ 0.06 µg/mL
- MIC90 (Neisseria meningitidis [16]): 0.12 µg/mL (≈ 0.359 µM)
- Activity (Listeria monocytogenes [17]): 100%
- Activity (Streptococcus pneumoniae [18]): 100%
- Activity (Streptococcus pneumoniae [19]): 100%
- Activity (Streptococcus anginosus [20]): 53.2%
- Activity (Streptococcus equinus [21]): 53.2%
- Activity [22]: 53.2%
- Activity [23]: 53.2%
- Activity (Streptococcus mitis [24]): 53.2%
- Activity (Streptococcus oralis [25]): 53.2%
- Activity (Streptococcus salivarius [26]): 53.2%
- Activity (Streptococcus sanguinis [27]): 53.2%
- Activity (Haemophilus influenzae [28]): inactive
- Activity (Haemophilus influenzae [29]): inactive
- Activity (Neisseria meningitidis [30]): 50%

Compound: CN[C@H](CC(C)C)C(=O)N[C@H]1C(=O)N[C@@H](CC(N)=O)C(=O)N[C@H]2C(=O)N[C@H]3C(=O)N[C@H](C(=O)N[C@H](C(=O)O)c4cc(O)cc(O)c4-c4cc3ccc4O)[C@H](O)c3ccc(c(Cl)c3)Oc3cc2cc(c3O[C@@H]2O[C@H](CO)[C@@H](O)[C@H](O)[C@H]2O[C@H]2C[C@](C)(N)[C@H](O)[C@H](C)O2)Oc2ccc(cc2Cl)[C@H]1O [VANCOMYCIN]
- MIC50 (Enterococcus faecalis [31]): 1 µg/mL (≈ 0.69 µM)
- MIC90 (Enterococcus faecalis [31]): > 32 µg/mL
- MIC (Enterococcus faecium [32]): ≤ 0.5 µg/mL
- MIC50 (Enterococcus faecium [32]): ≤ 0.5 µg/mL
- MIC90 (Enterococcus faecium [32]): > 32 µg/mL
- Activity (Enterococcus faecalis [33]): 80%
- Activity (Enterococcus faecium [34]): 87.3%

— ChEMBL document CHEMBL1649565, “Besifloxacin, a novel fluoroquinolone, has broad-spectrum in vitro activity against aerobic and anaerobic bacteria” (Antimicrob Agents Chemother, 2009)
